Biological target: T1, human A2a receptor (Homo sapiens, UniProt P29274)
T1 construct: purchased Perkin-Elmer RBHA2AM400UA; host or cells: HEK293 cells (membranes)
Assay: A2a competition binding assay, Scintillation Proximity technology
Settings: membranes from HEK293 cells expressing human A2a receptor; Ki by Cheng-Prusoff equation
How it was run: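 Membranes from HEK293 cells expressing human A2a, adenosine deaminase-treated, incubated 1 h at room temperature with compound (3000 to 0.15 nM) and 0.5 nM tritiated pyrazolotriazolopyrimidine radioligand on WGA SPA beads in Ca/Mg-free PBS + 10 mM MgCl2. Non-specific binding with 1 μM CGS15943; Ki by Cheng-Prusoff.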

T1 sequence (P29274 whole entry): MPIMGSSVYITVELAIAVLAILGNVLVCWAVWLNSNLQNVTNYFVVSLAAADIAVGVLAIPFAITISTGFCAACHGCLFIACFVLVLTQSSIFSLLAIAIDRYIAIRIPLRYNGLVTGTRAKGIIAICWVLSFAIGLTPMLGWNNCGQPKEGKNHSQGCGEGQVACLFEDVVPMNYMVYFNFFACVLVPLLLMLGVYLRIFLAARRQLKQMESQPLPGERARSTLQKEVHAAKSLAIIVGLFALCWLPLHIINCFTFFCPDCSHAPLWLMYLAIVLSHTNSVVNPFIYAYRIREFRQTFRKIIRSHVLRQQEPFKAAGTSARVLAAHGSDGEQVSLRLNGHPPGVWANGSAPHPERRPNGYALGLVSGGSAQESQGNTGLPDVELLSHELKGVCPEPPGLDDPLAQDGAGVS

Row | SMILES | Ki
1 | CCc1c(F)ccnc1CNC(=O)c1nc(C)c(-c2ncco2)nc1N [Ex-163, 3-amino-N-[(3-ethyl-4-fluoropyridin-2-yl)methyl]-6-methyl-5-(1,3-oxazol-2-yl)pyrazine-2-carboxamide] | 0.197 nM
2 | Cc1nc(C(=O)NCc2nc3ccccc3[nH]2)c(N)nc1-c1ncco1 [Ex-164, 3-amino-N-(1H-benzimidazol-2-ylmethyl)-6-methyl-5-(1,3-oxazol-2-yl)pyrazine-2-carboxamide] | 1.29 nM
3 | CCn1ncnc1CNC(=O)c1nc(C)c(-c2ncco2)nc1N [Ex-166, 3-amino-N-[(1-ethyl-1H-1,2,4-triazol-5-yl)methyl]-6-methyl-5-(1,3-oxazol-2-yl)pyrazine-2-carboxamide] | 0.599 nM
4 | CCOc1cccnc1CNC(=O)c1nc(C)c(-c2ncco2)nc1N [Ex-167, 3-amino-N-[(3-ethoxypyridin-2-yl)methyl]-6-methyl-5-(1,3-oxazol-2-yl)pyrazine-2-carboxamide] | 0.158 nM
5 | Cc1nc(C(=O)NCc2ncc(F)cc2C2CC2)c(N)nc1-c1ncco1 [Ex-169, 3-amino-N-[(3-cyclopropyl-5-fluoropyridin-2-yl)methyl]-6-methyl-5-(1,3-oxazol-2-yl)pyrazine-2-carboxamide] | 0.375 nM
6 | Cc1nc(C(=O)NCc2nn(C)cc2C2CC2)c(N)nc1-c1ncco1 [Ex-170, 3-amino-N-[(4-cyclopropyl-1-methyl-1H-pyrazol-3-yl)methyl]-6-methyl-5-(1,3-oxazol-2-yl)pyrazine-2-carboxmamide] | 0.482 nM
7 | Cc1nc(C(=O)NCc2nccnc2F)c(N)nc1-c1ncco1 [Ex-172, 3-amino-N-[(3-fluoropyrazin-2-yl)methyl]-6-methyl-5-(1,3-oxazol-2-yl)pyrazine-2-carboxamide] | 3.05 nM
8 | CCOc1cccc(F)c1CNC(=O)c1nc(C)c(-c2ncco2)nc1N [Ex-173, 3-amino-N-(2-ethoxy-6-fluorobenzyl)-6-methyl-5-(1,3-oxazol-2-yl)pyrazine-2-carboxamide] | 0.191 nM
9 | Cc1nc(C(=O)NCc2nn(C)c3c2CCC3)c(N)nc1-c1ncco1 [Ex-174, 3-amino-6-methyl-N-[(1-methyl-1,4,5,6-tetrahydrocyclopenta[c]pyrazol-3-yl)methyl]-5-(1,3-oxazol-2-yl)pyrazine-2-carboxamide] | 2.96 nM
10 | Cc1cncnc1CNC(=O)c1nc(C)c(-c2ncco2)nc1N [Ex-175, 3-amino-6-methyl-N-[(5-methylpyrimidin-4-yl)methyl]-5-(1,3-oxazol-2-yl)pyrazine-2-carboxamide] | 6.31 nM
11 | Cc1nc(C(=O)NCc2nccc3ccccc23)c(N)nc1-c1ncco1 [Ex-178, 3-amino-N-(isoquinolin-1-ylmethyl)-6-methyl-5-(1,3-oxazol-2-yl)pyrazine-2-carboxamide] | 0.217 nM
12 | CCc1cccnc1CNC(=O)c1nc(C)c(-c2ncco2)nc1N [Ex-179, 3-amino-N-[(3-ethylpyridin-2-yl)methyl]-6-methyl-5-(1,3-oxazol-2-yl)pyrazine-2-carboxamide] | 0.1 nM
13 | Cc1nc(C(=O)NCc2nccc(F)c2C2CC2)c(N)nc1-c1ncco1 [Ex-180, 3-amino-N-[(3-cyclopropyl-4-fluoropyridin-2-yl)methyl]-6-methyl-5-(1,3-oxazol-2-yl)pyrazine-2-carboxamide] | 0.168 nM
14 | Cc1nc(C(=O)NCc2cccc3c2ncn3CC(F)(F)F)c(N)nc1-c1ncco1 [Ex-181, 3-amino-6-methyl-5-(1,3-oxazol-2-yl)-N-{[1-(2,2,2-trifluoroethyl)-1H-benzimidazol-4-yl]methyl}pyrazine-2-carboxamide] | 1.3 nM
15 | Cc1nc(C(=O)NCc2ncc(C(F)(F)F)cc2C2CC2)c(N)nc1-c1ncco1 [Ex-182, 3-amino-N-{[3-cyclopropyl-5-(trifluoromethyl)pyridin-2-yl]methyl}-6-methyl-5-(1,3-oxazol-2-yl)pyrazine-2-carboxamide] | 2.7 nM
16 | Cc1cc(C(F)(F)F)cnc1CNC(=O)c1nc(C)c(-c2ncco2)nc1N [Ex-183, 3-amino-6-methyl-N-{[3-methyl-5-(trifluoromethyl)pyridin-2-yl]methyl}-5-(1,3-oxazol-2-yl)pyrazine-2-carboxamide] | 6.72 nM
17 | Cc1nc(C(=O)NCc2nccnc2C2CC2)c(N)nc1-c1ncco1 [Ex-184, 3-amino-N-[(3-cyclopropyl-pyrazin-2-yl)methyl]-6-methyl-5-(1,3-oxazol-2-yl)pyrazine-2-carboxamide] | 0.208 nM
18 | Cc1cnc(CNC(=O)c2nc(C)c(-c3ncco3)nc2N)nc1 [Ex-185, 3-amino-6-methyl-N-[(5-methylpyrimidin-2-yl)methyl]-5-(1,3-oxazol-2-yl)pyrazine-2-carboxamide] | 4.25 nM
19 | COc1cccc(F)c1CNC(=O)c1nc(C)c(-c2ncco2)nc1N [Ex-186, 3-amino-N-(2-fluoro-6-methoxybenzyl)-6-methyl-5-(1,3-oxazol-2-yl)pyrazine-2-carboxamide] | 0.181 nM
20 | CCc1nccnc1CNC(=O)c1nc(C)c(-c2ncco2)nc1N [Ex-187, 3-amino-N-[(3-ethylpyrazin-2-yl)methyl]-6-methyl-5-(1,3-oxazol-2-yl)pyrazine-2-carboxamide] | 0.449 nM
21 | Cc1nc(C(=O)NCc2ncnn2C(C)C)c(N)nc1-c1ncco1 [Ex-188, 3-amino-6-methyl-N-{[1-(1-methylethyl)-1H-1,2,4-triazol-5-yl]methyl}-5-(1,3-oxazol-2-yl)pyrazine-2-carboxamide] | 0.29 nM
22 | Cc1nc(C(=O)NCc2cccc3c2ncn3C(C)C)c(N)nc1-c1ncco1 [Ex-189] | 1.03 nM
23 | Cc1nc2c(o1)CN(CCNC(=O)c1nc(C)c(-c3ncco3)nc1N)CC2 [Ex-190, 3-amino-6-methyl-N-[2-(2-methyl-6,7-dihydro[1,3]oxazolo[5,4-c]pyridin-5-(4H)-yl)ethyl]-5-(1,3-oxazol-2-yl)pyrazine-2-carboxamide] | 12.3 nM
24 | CCn1cnc2c(CNC(=O)c3nc(C)c(-c4ncco4)nc3N)cccc21 [Ex-193, 3-amino-N-[(1-ethyl-1H-benimidazol-4-yl)methyl]-6-methyl-5-(1,3-oxazol-2-yl)pyrazine-2-carboxamide] | 0.435 nM
25 | Cc1nc(C(=O)NCc2nn(C)cc2C(F)F)c(N)nc1-c1ncco1 [Ex-194, 3-amino-N-{[4-(difluoromethyl)-1-methyl-1H-pyrazol-3-yl]methyl}-6-methyl-5-(1,3-oxazol-2-yl)pyrazine-2-carboxamide] | 1.65 nM
26 | Cc1nccnc1CNC(=O)c1nc(C)c(-c2ncco2)nc1N [Ex-195, 3-amino-6-methyl-N-[(3-methylpyrazin-2-yl)methyl]-5-(1,3-oxazol-2-yl)pyrazine-2-carboxamide] | 1.71 nM
27 | CCc1cc(C(F)(F)F)cnc1CNC(=O)c1nc(C)c(-c2ncco2)nc1N [Ex-196, 3-amino-N-{[3-ethyl-5-(trifluoromethyl)pyridin-2-yl]methyl}-6-methyl-5-(1,3-oxazol-2-yl)pyrazine-2-carboxamide] | 2.53 nM
28 | Cc1nc(C(=O)NCc2ncc(C3CC3)cn2)c(N)nc1-c1ncco1 [Ex-197, 3-amino-N-[(5-cyclopropylpyrimidin-2-yl)methyl]-6-methyl-5-(1,3-oxazol-2-yl)pyrazine-2-carboxamide] | 6.37 nM
29 | Cc1nc(C(=O)NCc2nccc3ncn(C)c23)c(N)nc1-c1ncco1 [Ex-198, 3-amino-6-methyl-N-[(3-methyl-3H-imidazo[4,5-c]pyridin-4-yl)methyl]-5-(1,3-oxazol-2-yl)pyrazine-2-carboxamide] | 8.77 nM
